Test system: 556581-035-R-J1-PDC complex spheroid growth
Experiment: Anticancer human tumor 556581-035-R-J1-PDC patient-derived ovarian carcinoma cell line growth inhibition [Asc]
Settings: for IC50: curve of first compound; for viability, T/C: stronger effect = lower value
Summary of the method: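 Stromal components (HUVEC and hMSC) are co-assembled with the cancer cells into multicellular spheroids. Drugs are then added singly or paired, at concentrations falling by half-log increments from a clinically achievable maximum, capped at 10 microM without known Cmax.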

[1] = second compound 0.1 µM, first compound 0.0316 µM
[2] = second compound 0.1 µM, first compound 0.1 µM
[3] = second compound 0.1 µM, first compound 0.316 µM
[4] = second compound 0.1 µM, first compound 1 µM
[5] = second compound 0.1 µM, first compound 3.16 µM
[6] = second compound 0.1 µM, first compound 10 µM
[7] = second compound 0.316 µM, first compound 0.0316 µM
[8] = second compound 0.316 µM, first compound 0.1 µM
[9] = second compound 0.316 µM, first compound 0.316 µM
[10] = second compound 0.316 µM, first compound 1 µM
[11] = second compound 0.316 µM, first compound 3.16 µM
[12] = second compound 0.316 µM, first compound 10 µM
[13] = second compound 1 µM, first compound 0.0316 µM
[14] = second compound 1 µM, first compound 0.1 µM
[15] = second compound 1 µM, first compound 0.316 µM
[16] = second compound 1 µM, first compound 1 µM
[17] = second compound 1 µM, first compound 3.16 µM
[18] = second compound 1 µM, first compound 10 µM
[19] = second compound 3.16 µM, first compound 0.0316 µM
[20] = second compound 3.16 µM, first compound 0.1 µM
[21] = second compound 3.16 µM, first compound 0.316 µM
[22] = second compound 3.16 µM, first compound 1 µM
[23] = second compound 3.16 µM, first compound 3.16 µM
[24] = second compound 3.16 µM, first compound 10 µM
[25] = second compound 10 µM, first compound 0.0316 µM
[26] = second compound 10 µM, first compound 0.1 µM
[27] = second compound 10 µM, first compound 0.316 µM
[28] = second compound 10 µM, first compound 1 µM
[29] = second compound 10 µM, first compound 3.16 µM
[30] = second compound 10 µM, first compound 10 µM
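Note: spheroids exposed to agents for 7 days before viability read.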

SMILES: C#Cc1c(F)ccc2cc(O)cc(-c3ncc4c(N5CC6CCC(C5)N6)nc(OCC56CCCN5CC(F)C6)nc4c3F)c12 (stereo not given) + Cc1c(S(C)(=O)=O)c(-c2cc(F)cc(N3CCN(c4ccc(NS(=O)(=O)c5ccc(NC(CCN6CCC(C(=O)OCCCP(=O)(O)O)CC6)CSc6ccccc6)c(S(=O)(=O)C(F)(F)F)c5)cc4)CC3)c2)c(-c2ccc(Cl)cc2)n1C(C)C
- IC50 (second compound 0.1 µM): > 10000 nM
- IC50 (second compound 0.316 µM): > 10000 nM
- IC50 (second compound 1 µM): 7570 nM
- IC50 (second compound 3.16 µM): 8820 nM
- IC50 (second compound 10 µM): 1210 nM
- viability, T/C [1]: 82%
- viability, T/C [2]: 83.8%
- viability, T/C [3]: 63.6%
- viability, T/C [4]: 64.5%
- viability, T/C [5]: 79.7%
- viability, T/C [6]: 71.9%
- viability, T/C [7]: 55%
- viability, T/C [8]: 79.5%
- viability, T/C [9]: 81.9%
- viability, T/C [10]: 70.1%
- viability, T/C [11]: 63.6%
- viability, T/C [12]: 63.5%
- viability, T/C [13]: 73.3%
- viability, T/C [14]: 65.3%
- viability, T/C [15]: 63.8%
- viability, T/C [16]: 65.1%
- viability, T/C [17]: 59.2%
- viability, T/C [18]: 46.9%
- viability, T/C [19]: 51.7%
- viability, T/C [20]: 68.3%
- viability, T/C [21]: 67.3%
- viability, T/C [22]: 60.7%
- viability, T/C [23]: 57.8%
- viability, T/C [24]: 49.1%
- viability, T/C [25]: 64.8%
- viability, T/C [26]: 58.2%
- viability, T/C [27]: 59.9%
- viability, T/C [28]: 47%
- viability, T/C [29]: 47.3%
- viability, T/C [30]: 39.6%

SMILES: C=C(F)C(=O)N1CCN(c2nc(OCC3CCCN3C)nc3c2CCN(c2cccc4cccc(Cl)c24)C3)CC1CC#N (stereo not given) + Cc1c(S(C)(=O)=O)c(-c2cc(F)cc(N3CCN(c4ccc(NS(=O)(=O)c5ccc(NC(CCN6CCC(C(=O)OCCCP(=O)(O)O)CC6)CSc6ccccc6)c(S(=O)(=O)C(F)(F)F)c5)cc4)CC3)c2)c(-c2ccc(Cl)cc2)n1C(C)C
- IC50 (second compound 0.1 µM): 2110 nM
- IC50 (second compound 0.316 µM): 1550 nM
- IC50 (second compound 1 µM): 1270 nM
- IC50 (second compound 3.16 µM): 1010 nM
- IC50 (second compound 10 µM): 1010 nM
- viability, T/C [1]: 80.6%
- viability, T/C [2]: 87.7%
- viability, T/C [3]: 79.1%
- viability, T/C [4]: 76.9%
- viability, T/C [5]: 35.4%
- viability, T/C [6]: 30.3%
- viability, T/C [7]: 69.3%
- viability, T/C [8]: 86.7%
- viability, T/C [9]: 87.8%
- viability, T/C [10]: 68.6%
- viability, T/C [11]: 18.2%
- viability, T/C [12]: 0.26%
- viability, T/C [13]: 73.7%
- viability, T/C [14]: 71.8%
- viability, T/C [15]: 64.9%
- viability, T/C [16]: 56.8%
- viability, T/C [17]: 23.5%
- viability, T/C [18]: 25.7%
- viability, T/C [19]: 63.1%
- viability, T/C [20]: 61.5%
- viability, T/C [21]: 67.7%
- viability, T/C [22]: 50.3%
- viability, T/C [23]: 22.1%
- viability, T/C [24]: 27%
- viability, T/C [25]: 59.6%
- viability, T/C [26]: 54.5%
- viability, T/C [27]: 57.8%
- viability, T/C [28]: 50.4%
- viability, T/C [29]: 8.45%
- viability, T/C [30]: 0.49%

SMILES: CCN1C(C(=O)NC23CCC(C(=O)O)(CC2)CC3)C(c2cccc(Cl)c2F)C2(C(=O)Nc3cc(Cl)ccc32)C12CCCCC2 (stereo not given) + Cc1c(S(C)(=O)=O)c(-c2cc(F)cc(N3CCN(c4ccc(NS(=O)(=O)c5ccc(NC(CCN6CCC(C(=O)OCCCP(=O)(O)O)CC6)CSc6ccccc6)c(S(=O)(=O)C(F)(F)F)c5)cc4)CC3)c2)c(-c2ccc(Cl)cc2)n1C(C)C
- IC50 (second compound 0.1 µM): > 3000 nM
- IC50 (second compound 0.316 µM): > 3000 nM
- IC50 (second compound 1 µM): > 3000 nM
- IC50 (second compound 3.16 µM): > 3000 nM
- IC50 (second compound 10 µM): 812 nM
- viability, T/C (second compound 0.1 µM, first compound 0.00949 µM): 80.2%
- viability, T/C (second compound 0.1 µM, first compound 0.03 µM): 84.5%
- viability, T/C (second compound 0.1 µM, first compound 0.0949 µM): 89.2%
- viability, T/C (second compound 0.1 µM, first compound 0.3 µM): 81.3%
- viability, T/C (second compound 0.1 µM, first compound 0.949 µM): 82%
- viability, T/C (second compound 0.1 µM, first compound 3 µM): 75.8%
- viability, T/C (second compound 0.316 µM, first compound 0.00949 µM): 82.2%
- viability, T/C (second compound 0.316 µM, first compound 0.03 µM): 77.6%
- viability, T/C (second compound 0.316 µM, first compound 0.0949 µM): 85.3%
- viability, T/C (second compound 0.316 µM, first compound 0.3 µM): 68.3%
- viability, T/C (second compound 0.316 µM, first compound 0.949 µM): 64%
- viability, T/C (second compound 0.316 µM, first compound 3 µM): 66.4%
- viability, T/C (second compound 1 µM, first compound 0.00949 µM): 87%
- viability, T/C (second compound 1 µM, first compound 0.03 µM): 74.2%
- viability, T/C (second compound 1 µM, first compound 0.0949 µM): 80.1%
- viability, T/C (second compound 1 µM, first compound 0.3 µM): 78.1%
- viability, T/C (second compound 1 µM, first compound 0.949 µM): 60.2%
- viability, T/C (second compound 1 µM, first compound 3 µM): 52.1%
- viability, T/C (second compound 3.16 µM, first compound 0.00949 µM): 65.8%
- viability, T/C (second compound 3.16 µM, first compound 0.03 µM): 68.3%
- viability, T/C (second compound 3.16 µM, first compound 0.0949 µM): 74.8%
- viability, T/C (second compound 3.16 µM, first compound 0.3 µM): 69.4%
- viability, T/C (second compound 3.16 µM, first compound 0.949 µM): 77.1%
- viability, T/C (second compound 3.16 µM, first compound 3 µM): 47.2%
- viability, T/C (second compound 10 µM, first compound 0.00949 µM): 60.2%
- viability, T/C (second compound 10 µM, first compound 0.03 µM): 67.6%
- viability, T/C (second compound 10 µM, first compound 0.0949 µM): 55.6%
- viability, T/C (second compound 10 µM, first compound 0.3 µM): 58.7%
- viability, T/C (second compound 10 µM, first compound 0.949 µM): 49%
- viability, T/C (second compound 10 µM, first compound 3 µM): 30.8%

SMILES: CNC(C)C(=O)NC1CN(S(=O)(=O)c2cccc(S(=O)(=O)N3CCC4CCC(C(=O)NC(c5ccccc5)c5ccccc5)N4C(=O)C(NC(=O)C(C)NC)C3)c2)CCC2CCC(C(=O)NC(c3ccccc3)c3ccccc3)N2C1=O (stereo not given) + Cc1c(S(C)(=O)=O)c(-c2cc(F)cc(N3CCN(c4ccc(NS(=O)(=O)c5ccc(NC(CCN6CCC(C(=O)OCCCP(=O)(O)O)CC6)CSc6ccccc6)c(S(=O)(=O)C(F)(F)F)c5)cc4)CC3)c2)c(-c2ccc(Cl)cc2)n1C(C)C
- IC50 (second compound 0.1 µM): 87.3 nM
- IC50 (second compound 0.316 µM): 73.8 nM
- IC50 (second compound 1 µM): 49.9 nM
- IC50 (second compound 3.16 µM): 6.27 nM
- IC50 (second compound 10 µM): < 3.16 nM
- viability, T/C (second compound 0.1 µM, first compound 0.00316 µM): 68.6%
- viability, T/C (second compound 0.1 µM, first compound 0.01 µM): 69.5%
- viability, T/C [1]: 60%
- viability, T/C [2]: 48%
- viability, T/C [3]: 49.1%
- viability, T/C [4]: 41.1%
- viability, T/C (second compound 0.316 µM, first compound 0.00316 µM): 60.2%
- viability, T/C (second compound 0.316 µM, first compound 0.01 µM): 73.3%
- viability, T/C [7]: 68.4%
- viability, T/C [8]: 43.7%
- viability, T/C [9]: 41%
- viability, T/C [10]: 26%
- viability, T/C (second compound 1 µM, first compound 0.00316 µM): 61.8%
- viability, T/C (second compound 1 µM, first compound 0.01 µM): 53.2%
- viability, T/C [13]: 67.3%
- viability, T/C [14]: 33.5%
- viability, T/C [15]: 28.6%
- viability, T/C [16]: 26.8%
- viability, T/C (second compound 3.16 µM, first compound 0.00316 µM): 49.7%
- viability, T/C (second compound 3.16 µM, first compound 0.01 µM): 54%
- viability, T/C [19]: 34.7%
- viability, T/C [20]: 35.5%
- viability, T/C [21]: 24.5%
- viability, T/C [22]: 24.5%
- viability, T/C (second compound 10 µM, first compound 0.00316 µM): 49.4%
- viability, T/C (second compound 10 µM, first compound 0.01 µM): 35.1%
- viability, T/C [25]: 42.4%
- viability, T/C [26]: 33.6%
- viability, T/C [27]: 27.8%
- viability, T/C [28]: 30.7%
